In patent publication US20200017496A1 (priority 2017, published 2020):
Where two headings read alike, the source gives them in different places.

Tested on: Klebsiella pneumoniae (KPN) isolates
Assay: MIC of compounds alone and combined with antibacterials, broth microdilution (CLSI)
Assay type: cell-based
Details: for MIC: Klebsiella pneumoniae, read-out: MIC
Procedure, shortened: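 Compound MIC, and antibacterial MIC at each fixed compound level, taken by visual inspection as lowest concentration stopping growth. Inoculum: log-phase bacteria, final 5·10^5 CFU/mL, cation-adjusted Mueller-Hinton broth; 16-20 h, 35° C, ambient air.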

SMILES: C=CC1=C(C(=O)O)N2C(=O)[C@@H](NC(=O)/C(=N\OCC(=O)O)c3csc(N)n3)[C@H]2SC1 [FIX, Cefixime]
- MIC ATB in combination (KPN 190425, AF1 @ 8 μg/mL): <=0.25 μg/mL
- MIC ATB in combination (KPN 190551, AF1 @ 4 μg/mL): <=0.25 μg/mL
- MIC ATB in combination (KPN 190551, AF1 @ 8 μg/mL): <=0.25 μg/mL
- MIC ATB in combination (KPN 200047, AF1 @ 4 μg/mL): <=0.25 μg/mL
- MIC ATB in combination (KPN 200047, AF1 @ 8 μg/mL): <=0.25 μg/mL
- MIC ATB in combination (KPN 200327, AF1 @ 4 μg/mL): <=0.25 μg/mL
- MIC ATB in combination (KPN 200327, AF1 @ 8 μg/mL): <=0.25 μg/mL
- MIC ATB in combination (KPN 260251, AF1 @ 4 μg/mL): <=0.25 μg/mL
- MIC ATB in combination (KPN 260251, AF1 @ 8 μg/mL): 0.5 µg/mL
- MIC ATB in combination (KPN 260252, AF1 @ 4 μg/mL): 8 µg/mL
- MIC ATB in combination (KPN 260252, AF1 @ 8 μg/mL): 4 µg/mL
- MIC ATB in combination (KPN 260376, AF1 @ 4 μg/mL): <=0.25 μg/mL
- MIC ATB in combination (KPN 260376, AF1 @ 8 μg/mL): <=0.25 μg/mL
- MIC ATB in combination (KPN 270077, AF1 @ 4 μg/mL): 0.5 µg/mL
- MIC ATB in combination (KPN 270077, AF1 @ 8 μg/mL): <=0.25 μg/mL
- MIC ATB in combination (KPN 700603, AF1 @ 4 μg/mL): <=0.25 μg/mL
- MIC ATB in combination (KPN 700603, AF1 @ 8 μg/mL): <=0.25 μg/mL
- MIC ATB in combination (KPN ARA, AF1 @ 4 μg/mL): <=0.25 μg/mL
- MIC ATB in combination (KPN ARA, AF1 @ 8 μg/mL): <=0.25 μg/mL
- MIC ATB in combination (KPN BAA-1898, AF1 @ 4 μg/mL): <=0.25 μg/mL
- MIC ATB in combination (KPN BAA-1898, AF1 @ 8 μg/mL): <=0.25 μg/mL
- MIC ATB in combination (KPN LIB, AF1 @ 4 μg/mL): <=0.25 μg/mL
- MIC ATB in combination (KPN LIB, AF1 @ 8 μg/mL): <=0.25 μg/mL
- MIC ATB in combination (KPN UFR22_O, AF1 @ 4 μg/mL): <=0.25 μg/mL
- MIC ATB in combination (KPN UFR22_O, AF1 @ 8 μg/mL): <=0.25 μg/mL
- MIC ATB in combination (KPN UFR23, AF1 @ 4 μg/mL): <=0.25 μg/mL
- MIC ATB in combination (KPN UFR23, AF1 @ 8 μg/mL): <=0.25 μg/mL
- MIC ATB in combination (KPN UFR24, AF1 @ 4 μg/mL): 0.5 µg/mL
- MIC ATB in combination (KPN UFR24, AF1 @ 8 μg/mL): 0.5 µg/mL
- MIC ATB in combination (KPN UFR25, AF1 @ 4 μg/mL): <=0.25 μg/mL
- MIC ATB in combination (KPN UFR25, AF1 @ 8 μg/mL): <=0.25 μg/mL
- MIC ATB in combination (KPN UFR27, AF1 @ 4 μg/mL): 16 µg/mL
- MIC ATB in combination (KPN UFR27, AF1 @ 8 μg/mL): 2 µg/mL
- MIC ATB in combination (KPN UFR28, AF1 @ 4 μg/mL): <=0.25 μg/mL
- MIC ATB in combination (KPN UFR28, AF1 @ 8 μg/mL): <=0.25 μg/mL
- MIC ATB in combination (KPN UFR65, AF1 @ 4 μg/mL): <=0.25 μg/mL
- MIC ATB in combination (KPN UFR65, AF1 @ 8 μg/mL): <=0.25 μg/mL
- MIC ATB in combination (KPN UFR66, AF1 @ 4 μg/mL): 1 µg/mL
- MIC ATB in combination (KPN UFR66, AF1 @ 8 μg/mL): 0.25 µg/mL
- MIC ATB in combination (KPN UFR67, AF1 @ 4 μg/mL): 2 µg/mL
- MIC ATB in combination (KPN UFR67, AF1 @ 8 μg/mL): 0.5 µg/mL
- MIC ATB in combination (KPN UFR68, AF1 @ 4 μg/mL): 1 µg/mL
- MIC ATB in combination (KPN UFR68, AF1 @ 8 μg/mL): 0.25 µg/mL
- MIC ATB in combination (KPN UFR77, AF1 @ 4 μg/mL): 16 µg/mL
- MIC ATB in combination (KPN UFR77, AF1 @ 8 μg/mL): 8 µg/mL
- MIC ATB in combination (KPN UFR78, AF1 @ 4 μg/mL): 128 µg/mL
- MIC ATB in combination (KPN UFR78, AF1 @ 8 μg/mL): 32 µg/mL
- MIC ATB in combination (KPN UFR79, AF1 @ 4 μg/mL): 16 µg/mL
- MIC ATB in combination (KPN UFR79, AF1 @ 8 μg/mL): 4 µg/mL
- MIC ATB in combination (KPN UFR80, AF1 @ 4 μg/mL): <=0.25 μg/mL
- MIC ATB in combination (KPN UFR80, AF1 @ 8 μg/mL): <=0.25 μg/mL
- MIC ATB in combination (KPN UFR81, AF1 @ 4 μg/mL): 16 µg/mL
- MIC ATB in combination (KPN UFR81, AF1 @ 8 μg/mL): 2 µg/mL
- MIC ATB in combination (KPN UFR215, AF1 @ 4 μg/mL): <=0.25 μg/mL
- MIC ATB in combination (KPN UFR215, AF1 @ 8 μg/mL): <=0.25 μg/mL
- MIC ATB in combination (KPN UFR216, AF1 @ 4 μg/mL): <=0.25 μg/mL
- MIC ATB in combination (KPN UFR216, AF1 @ 8 μg/mL): <=0.25 μg/mL
- MIC ATB in combination (KPN UFR217, AF1 @ 4 μg/mL): <=0.25 μg/mL
- MIC ATB in combination (KPN UFR217, AF1 @ 8 μg/mL): <=0.25 μg/mL
- MIC ATB in combination (KPN UFR219, AF1 @ 4 μg/mL): <=0.25 μg/mL
- MIC ATB in combination (KPN UFR219, AF1 @ 8 μg/mL): <=0.25 μg/mL
- MIC ATB in combination (KPN UFR220, AF1 @ 4 μg/mL): 4 µg/mL
- MIC ATB in combination (KPN UFR220, AF1 @ 8 μg/mL): 2 µg/mL
- MIC ATB in combination (KPN UFR221, AF1 @ 4 μg/mL): 2 µg/mL
- MIC ATB in combination (KPN UFR221, AF1 @ 8 μg/mL): <=0.25 μg/mL
- MIC ATB in combination (KPN UFR222, AF1 @ 4 μg/mL): 32 µg/mL
- MIC ATB in combination (KPN UFR222, AF1 @ 8 μg/mL): 16 µg/mL
- MIC ATB in combination (KPN UFR227O, AF1 @ 4 μg/mL): 1 µg/mL
- MIC ATB in combination (KPN UFR227O, AF1 @ 8 μg/mL): 0.5 µg/mL
- MIC (BAA1898, strain KPN BAA-1898 (TEM-1, SHV-11, SHV-12, KPC-2), ATB alone): > 128 µg/mL
- MIC (BAA1898, strain KPN BAA-1898 (TEM-1, SHV-11, SHV-12, KPC-2), CLA @ 4 μg/ml+ ATB): 64 µg/mL
- MIC (KPN 110376, alone): > 128 µg/mL
- MIC (KPN 131119, alone): > 128 µg/mL
- MIC (KPN 190270, alone): > 128 µg/mL
- MIC (KPN UFR25, alone): > 128 µg/mL
- MIC (KPN UFR66, alone): 512 µg/mL
- MIC (KPN UFR68, alone): > 128 µg/mL
- MIC (strain KPN 6299 (TEM-1, SHV-11, OXA-163), ATB alone): 8 µg/mL
- MIC (strain KPN 6299 (TEM-1, SHV-11, OXA-163), CLA @ 4 μg/ml+ ATB): 8 µg/mL
- MIC (strain KPN 110376 (TEM-1, SHV-1, CTX-M-15, OXA-1, OXA-48), ATB alone): > 128 µg/mL
- MIC (strain KPN 110376 (TEM-1, SHV-1, CTX-M-15, OXA-1, OXA-48), CLA @ 4 μg/ml+ ATB): 128 µg/mL
- MIC (strain KPN 131119 (TEM-1, SHV-11, CTX-M-15, OXA-1, OXA-48), ATB alone): > 128 µg/mL
